In assay [1] the target is T1, Ribosomal protein S6 kinase (Homo sapiens) (UniProt P51812+Q9UBS0+O75676+Q15349+O75582+P23443+Q9UK32+Q15418). The experiment in a line: Inhibition of RPS6 kinase phosphorylation in cells (unknown origin) incubated for 6 hrs by Western blot based cell based method.
The test system of assay [2] is FaDu. The experiment in a line: Cytotoxic activity against human FADU cancer stem cells incubated for 72 hrs by Cell-titer-Glo luminescence assay. The format is functional, cell-based.
Assay [3] addresses Mitogen-activated protein kinase; ERK1/ERK2 (Homo sapiens) (UniProt P27361+P28482). Nature of the assay: Inhibition of ERK phosphorylation in cells (unknown origin) incubated for 6 hrs by Western blot based cell based method. For orientation: In western blotting, separated proteins are transferred to a membrane and probed.
Assay [4] relates to ACHN. Nature of the assay: Cytotoxic activity against human ACHN bulk cells incubated for 72 hrs by Cell-titer-Glo luminescence assay. The format is functional, cell-based.
In assay [5] the target is Serine/threonine-protein kinase RIO2 (Homo sapiens) (UniProt Q9BVS4). The experiment in a line: Inhibition of N-terminal GST-fused full length human recombinant RIOK2 expressed in baculovirus Sf21 cells assessed as reduction in kinase auto-phosphorylation at 1 uM in presence of ATP incubated for 1 hr by ELISA method. (In general: An ELISA detects its analyte on a solid surface through an enzyme-linked reagent.)
Sequence of Serine/threonine-protein kinase RIO2 (Homo sapiens) (Q9BVS4 whole entry, looked up, the tested form may be a part): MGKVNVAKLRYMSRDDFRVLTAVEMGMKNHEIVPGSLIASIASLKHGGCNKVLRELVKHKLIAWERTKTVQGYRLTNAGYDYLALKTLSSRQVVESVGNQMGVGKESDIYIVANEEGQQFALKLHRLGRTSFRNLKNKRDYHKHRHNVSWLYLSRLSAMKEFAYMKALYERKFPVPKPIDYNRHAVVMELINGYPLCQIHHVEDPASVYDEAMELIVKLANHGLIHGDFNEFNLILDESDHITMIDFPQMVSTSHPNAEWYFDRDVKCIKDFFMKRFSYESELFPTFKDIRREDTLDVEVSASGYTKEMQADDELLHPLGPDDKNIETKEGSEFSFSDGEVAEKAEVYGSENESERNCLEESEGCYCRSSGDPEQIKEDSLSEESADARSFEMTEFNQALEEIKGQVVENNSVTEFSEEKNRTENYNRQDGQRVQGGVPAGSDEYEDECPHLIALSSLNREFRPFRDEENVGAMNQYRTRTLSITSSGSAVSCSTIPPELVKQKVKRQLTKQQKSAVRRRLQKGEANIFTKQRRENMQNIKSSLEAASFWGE

Assay [6] relates to A549. The experiment in a line: Cytotoxic activity against human A549 cancer stem cells incubated for 72 hrs by Cell-titer-Glo luminescence assay. To be noted: A549, 72 h. In kind it is functional, cell-based.
The test system of assay [7] is FaDu. Nature of the assay: Cytotoxic activity against human FADU bulk cells incubated for 72 hrs by Cell-titer-Glo luminescence assay. In kind it is functional, cell-based.
Assay [8] has as its system ACHN. The experiment in a line: Cytotoxic activity against human ACHN cancer stem cells incubated for 72 hrs by Cell-titer-Glo luminescence assay. The format is functional, cell-based.
Assay [9] relates to A549. Nature of the assay: Cytotoxic activity against human A549 bulk cells incubated for 72 hrs by Cell-titer-Glo luminescence assay. The format is functional, cell-based. Particulars: A549, 72 h.
The target in assay [10] is Serine/threonine-protein kinase RIO2 (Homo sapiens) (UniProt Q9BVS4). Nature of the assay: Inhibition of N-terminal GST-fused full length human recombinant RIOK2 expressed in baculovirus Sf21 cells assessed as reduction in kinase auto-phosphorylation at 10 uM in presence of ATP incubated for 1 hr by ELISA method.
For assay [11], the target named is AMP-activated protein kinase, AMPK (Homo sapiens) (UniProt P54646+O43741+P54619+Q9UGJ0+Q9Y478+Q13131+Q9UGI9). Nature of the assay: Inhibition of AMPK in human HeLa cells assessed as kinase phosphorylation level at 5 uM incubated for 6 hrs by SDS-PAGE based chemiluminescence assay. In kind it is cell-based. On the set-up: scale not given: the % may be the effect or the level left.

Assay [12] addresses T1, Ribosomal protein S6 kinase (Homo sapiens). Nature of the assay: Inhibition of RPS6 kinase in human HeLa cells assessed as p-RPS6 Ser235/236 phosphorylation level at 5 uM incubated for 6 hrs by SDS-PAGE based chemiluminescence assay. In kind it is cell-based. On the set-up: scale not given: the % may be the effect or the level left.
For assay [13] the target is unchanged. Nature of the assay: Inhibition of RPS6 kinase in human HeLa cells assessed as p-RPS6 Ser240/244 phosphorylation level at 5 uM incubated for 6 hrs by SDS-PAGE based chemiluminescence assay. The format is cell-based. On the set-up: scale not given: the % may be the effect or the level left.

Activity calls are given as the source filed them. The rule behind the calls is not given here.

One may read the inhibition as how much of the control response was suppressed. A word on the IC50: it is the concentration that gives 50% inhibition.

Sequence of Mitogen-activated protein kinase; ERK1/ERK2 (Homo sapiens) (P27361 whole entry, looked up): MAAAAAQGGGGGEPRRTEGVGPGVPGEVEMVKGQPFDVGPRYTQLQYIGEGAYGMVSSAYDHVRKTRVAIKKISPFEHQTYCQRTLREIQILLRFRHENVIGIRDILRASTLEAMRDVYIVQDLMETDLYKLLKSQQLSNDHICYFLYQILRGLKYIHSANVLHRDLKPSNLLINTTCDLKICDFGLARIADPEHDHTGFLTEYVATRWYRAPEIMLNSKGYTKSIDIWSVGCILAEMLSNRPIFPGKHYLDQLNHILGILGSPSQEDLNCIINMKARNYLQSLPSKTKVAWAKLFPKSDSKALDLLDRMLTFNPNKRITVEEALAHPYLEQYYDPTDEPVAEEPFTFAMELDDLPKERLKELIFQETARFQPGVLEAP
Sequence of Mitogen-activated protein kinase; ERK1/ERK2 (Homo sapiens) (P28482 whole entry, looked up): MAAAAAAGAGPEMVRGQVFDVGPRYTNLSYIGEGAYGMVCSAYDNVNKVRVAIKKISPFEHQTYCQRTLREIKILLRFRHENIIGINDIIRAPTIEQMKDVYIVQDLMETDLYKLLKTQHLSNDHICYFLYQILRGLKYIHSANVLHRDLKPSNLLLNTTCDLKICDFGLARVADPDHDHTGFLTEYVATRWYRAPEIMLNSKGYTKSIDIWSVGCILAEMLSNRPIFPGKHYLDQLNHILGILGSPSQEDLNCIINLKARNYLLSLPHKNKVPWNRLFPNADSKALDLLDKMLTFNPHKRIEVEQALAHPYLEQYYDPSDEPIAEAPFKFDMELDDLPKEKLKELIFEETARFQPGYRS

In the case of `Cc1[nH]c(/C=C2\C(=O)Nc3ccc(-c4csc(-c5ccccc5)n4)cc32)c(C)c1C(=O)NCCO`, in assay [1], the inhibition entry was “Active”.
`CCOC(=O)CCc1ccc(-c2nc(-c3ccc4c(c3)/C(=C/c3[nH]c(C)c(C(=O)NCCN(CC)CC)c3C)C(=O)N4)cs2)cc1`: the concentration for half-maximal inhibition (IC50) in the assay with FaDu [2] turned out to be 2520 nM. Moreover, the inhibition result in [3] was “Active”.
For `CCN(CC)CCNC(=O)c1c(C)[nH]c(/C=C2\C(=O)Nc3ccc(-c4cnn(-c5ccccn5)c4)cc32)c1C`, the IC50 with ACHN [4] amounted to 1240 nM; with FaDu [2], 50 nM; in the assay on A549 [6] it was 2.53 µM; with FaDu [7], 510 nM; with ACHN [8], 130 nM; in the assay on A549 [9], 1720 nM. Further, the results for the inhibition in [5] and in [10] were 36% and 86%, respectively.
Regarding `CCNC(=O)c1c(C)[nH]c(/C=C2\C(=O)Nc3ccc(-c4csc(-c5ccccc5)n4)cc32)c1C`, the inhibition result in assay [3] and in assay [1] was “Active” in each case.
Consider `Cc1[nH]c(/C=C2\C(=O)Nc3ccc(-c4cnn(-c5ccccn5)c4)cc32)c(C)c1C(=O)NCCN1CCCC1`, for which the Activity was 52% in assay [11], 82% in assay [12] and 92% in assay [13]. Moreover, the IC50 with ACHN [4] came out at 1640 nM; in the assay with FaDu [2], 1650 nM; in the assay on A549 [6], 11.7 µM; in the assay with FaDu [7] it was 2530 nM; in the assay with ACHN [8], 220 nM; in the assay on A549 [9], 2530 nM. Besides, the inhibition came out at 53% in assay [5] and 91% in assay [10].
Turning to `Cc1cc(C)c(/C=C2\C(=O)Nc3ccc(-c4ccc(C=O)cc4)cc32)[nH]1`, in [3], the inhibition result was “Active”. Also, the IC50 is 26800 nM in the assay with FaDu [7] and 29200 nM in the assay with A549 [9].
As for `CCN(CC)CCNC(=O)c1c(C)[nH]c(/C=C2\C(=O)Nc3ccc(-c4ccnn4-c4ccccc4)cc32)c1C`, the IC50 was 6570 nM with ACHN [4]; 3460 nM in the assay with FaDu [2]; 5.54 µM with A549 [6]; 3010 nM in the assay on FaDu [7]; 1170 nM in the assay with ACHN [8]; 2940 nM in the assay with A549 [9]. For the same molecule, the inhibition was 55% in assay [5] and 100% in assay [10].
Regarding `CCN(CC)CCNC(=O)c1c(C)[nH]c(/C=C2\C(=O)Nc3ccc(-c4cnn(-c5ccccc5)c4C)cc32)c1C`, the half-inhibitory concentration (IC50) in the assay on ACHN [4] stood at 3540 nM; in the assay with FaDu [2] it was 1310 nM; with A549 [6] it was 4.9 µM; with FaDu [7], 2840 nM; in the assay on A549 [9], 29200 nM. The inhibition in [5] came to 55%; in assay [10], 76%.

The values above are taken from ChEMBL document CHEMBL3727348, “3-(aryl or heteroaryl) methyleneindolin-2-one derivatives as inhibitors of cancer stem cell pathway kinases for the treatment of cancer” (2014).
